In US20020019527A1 (priority 2000, published 2002):
Counter-ions that a name gives are not always drawn. Like-named read-outs stand apart in the source and are kept apart here.

Columns and labels:
[1] = Cardiovascular liability test
Description: Representative compounds of the instant invention were also tested for cardiovascular liability (see Journal of Cardiovascular Pharmacology, 607-618: 37 (2001)).

[2] = target: T1, Farnesyltransferase (FTase) (Bos taurus, UniProt P29702+P49355); experiment: Farnesyltransferase inhibition (scintillation proximity assay, [3H]-FPP / biotin-K-ras peptide); format: biochemical, bovine
T1 construct: precipitation from a beef brain homogenate; from tissue; host or cells: bovine brain
T1 sequence (P49355 whole entry, one chain of several): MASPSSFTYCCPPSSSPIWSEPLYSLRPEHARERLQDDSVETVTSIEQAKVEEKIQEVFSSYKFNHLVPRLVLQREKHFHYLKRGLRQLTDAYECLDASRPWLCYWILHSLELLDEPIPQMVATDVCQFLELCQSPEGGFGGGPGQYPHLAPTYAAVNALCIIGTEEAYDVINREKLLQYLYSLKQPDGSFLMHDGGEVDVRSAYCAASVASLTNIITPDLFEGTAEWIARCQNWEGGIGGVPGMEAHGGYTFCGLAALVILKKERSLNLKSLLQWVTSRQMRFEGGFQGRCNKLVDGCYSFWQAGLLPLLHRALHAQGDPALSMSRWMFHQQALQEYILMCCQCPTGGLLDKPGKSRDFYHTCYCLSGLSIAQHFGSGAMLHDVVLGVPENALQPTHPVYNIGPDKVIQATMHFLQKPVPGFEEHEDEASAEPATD
Procedure, shortened: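 Bovine brain FTase, partially purified by 30–50% saturated ammonium sulfate precipitation and DEAE Sepharose chromatography, separated from GGTase I/II. Scintillation proximity read-out of [3H]-FPP transfer to biotin-K-ras peptide, counted 1 h after quench. Compounds added from ethanol with 10-fold dilution into assay.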

[3] = compound at 10^−6 M, bovine FTase, 37° C., 30 minutes

inhibition at 1 µM [2, 3] [%] | SMILES | further results
98 | Cn1cncc1C(OCc1ccc(F)c(C(F)(F)F)c1)c1ccc(C#N)c(-c2cccc3cccnc23)c1 (stereo not drawn) [Example 242, 4-(((4-fluoro-3-(trifluoromethyl)benzyl)oxy)(1-methyl-1H-imidazol-5-yl)methyl)-2-(8-quinolinyl)benzonitrile dihydrochloride] | 
80 | COc1cccc(-c2nc(COC(c3ccc(C#N)c(-c4ccccc4C)c3)c3cncn3C)no2)c1 (stereo not drawn) [Example 173, 5-(((5-(3-methoxyphenyl)-1,2,4-oxadiazol-3-yl)methoxy)(1-methyl-1H-imidazol-5-yl)methyl)-2′-methyl(1,1′-biphenyl)-2-carbonitrile hydrochloride] | 
94 | Cn1cncc1CN(Cc1ccc(C#N)c(-c2cccc3ccccc23)c1)C(=O)c1ccc(Cl)c(F)c1 [Example 198, 4-chloro-N-(4-cyano-3-(1-naphthyl)benzyl)-3-fluoro-N-((1-methyl-1H-imidazol-5-yl)methyl)benzamide] | 
92 | Cn1cncc1C(OCc1ccc(C#N)cc1)c1ccc(C#N)c(-c2ccc(Cl)cc2Cl)c1 (stereo not drawn) [Example 202, 2′,4′-dichloro-5-(((4-cyanobenzyl)oxy)(1-methyl-1H-imidazol-5-yl)methyl)(1,1′-biphenyl)-2-carbonitrile hydrochloride] | 
97 | CC(=O)Nc1ccc(CN(Cc2ccc(C#N)c(-c3cccc4ccccc34)c2)Cc2cncn2C)cc1 [Example 194, N-(4-(((4-cyano-3-(1-naphthyl)benzyl)((1-methyl-1H-imidazol-5-yl)methyl)amino)methyl)phenyl)acetamide dihydrochloride] | 
94 | Cc1ccccc1-c1cc(C(OCc2csc(-c3ccc(Cl)cc3)n2)c2cncn2C)ccc1C#N (stereo not drawn) [Example 162, 5-(((2-(4-chlorophenyl)-1,3-thiazol-4-yl)methoxy)(1-methyl-1H-imidazol-5-yl)methyl)-2′-methyl(1,1′-biphenyl)-2-carbonitrile hydrochloride] | 
85 | Cc1ccccc1-c1cc(C(OCc2c(F)cccc2F)c2cncn2C)ccc1C#N (stereo not drawn) [Example 186, 5-(((2,6-difluorobenzyl)oxy)(1-methyl-1H-imidazol-5-yl)methyl)-2′-methyl(1,1′-biphenyl)-2-carbonitrile hydrochloride] | 
85 | COc1ccc(-c2nc(COC(c3ccc(C#N)c(-c4ccccc4C)c3)c3cncn3C)no2)cc1 (stereo not drawn) [Example 172, 5-(((5-(4-methoxyphenyl)-1,2,4-oxadiazol-3-yl)methoxy)(1-methyl-1H-imidazol-5-yl)methyl)-2′-methyl(1,1′-biphenyl)-2-carbonitrile hydrochloride] | 
96 | Cn1cncc1C(OCc1ccc(C#N)cc1)c1ccc(C#N)c(-c2ccccc2CO)c1 (stereo not drawn) [Example 204, 5-(((4-cyanobenzyl)oxy)(1-methyl-1H-imidazol-5-yl)methyl)-2′-(hydroxymethyl)(1,1′-biphenyl)-2-carbonitrile] | 
100 | Cn1cncc1CN(c1ccc(C#N)c(-c2cccc3ccccc23)c1)S(=O)(=O)c1ccccc1 [Example 267, N-(4-cyano-3-(1-naphthyl)phenyl)-N-((1-methyl-1H-imidazol-5-yl)methyl)benzenesulfonamide] | 

More lines, now with the values behind:

SMILES | inhibition at 1 µM [2, 3] [%] | further results
N#Cc1ccc(COC(c2ccc(C#N)c(-c3cccc4ccccc34)c2)c2cncs2)nc1 (stereo not drawn) [Example 291, 6-(((4-cyano-3-(1-naphthyl)phenyl)(1,3-thiazol-5-yl)methoxy)methyl)nicotinonitrile] |  | electrophysiological profile (cardiovascular liability) [1]: improved electrophysiological profile
Cn1cncc1C(NC1CCN(C(=O)OC(C)(C)C)CC1)c1ccc(C#N)c(-c2cccc3ccccc23)c1 (stereo not drawn) [Example 56, tert-butyl 4-(((4-cyano-3-(1-naphthyl)phenyl)(1-methyl-1H-imidazol-5-yl)methyl)amino)-1-piperidinecarboxylate] | 100 | 
Cc1ccccc1-c1cc(CN(CCC2CCCCC2)Cc2cncn2C)ccc1C#N [Example 82, 5-(((2-cyclohexylethyl)((1-methyl-1H-imidazol-5-yl)methyl)amino)methyl)-2′-methyl(1,1′-biphenyl)-2-carbonitrile hydrochloride] | 87 | 
Cn1cncc1C(OCc1ccc(C(=O)O)cc1)c1ccc(C#N)c(-c2cccc3ccccc23)c1 (stereo not drawn) [Example 69, lithium 4-(((4-cyano-3-(1-naphthyl)phenyl)(1-methyl-1H-imidazol-5-yl)methoxy)methyl)benzoate] | 100 | 
Cc1ccccc1-c1cc(C(O)(C#Cc2ccccc2)c2cncn2C)ccc1C#N (stereo not drawn) [Example 109, 5-(1-hydroxy-1-(1-methyl-1H-imidazol-5-yl)-3-phenyl-2-propynyl)-2′-methyl(1,1′-biphenyl)-2-carbonitrile] | 100 | 
Cn1cncc1C(OCc1ccc(S(C)(=O)=O)cc1)c1ccc(C#N)c(-c2cccc3ccccc23)c1 (stereo not drawn) [Example 73, 4-((1-methyl-1H-imidazol-5-yl)((4-(methylsulfonyl)benzyl)oxy)methyl)-2-(1-naphthyl)benzonitrile hydrochloride] | 100 | 
Cc1ccccc1-c1cc(C(NCc2ccc(C#N)cc2)c2cncn2C)ccc1C#N (stereo not drawn) [Example 25, 5-(((4-cyanobenzyl)amino)(1-methyl-1H-imidazol-5-yl)methyl)-2′-methyl(1,1′-biphenyl)-2-carbonitrile] | 100 | 
Cc1ccccc1-c1cc(C(OCc2c(Cl)cccc2Cl)c2cncn2C)ccc1C#N (stereo not drawn) [Example 124, 5-(((2,6-dichlorobenzyl)oxy)(1-methyl-1H-imidazol-5-yl)methyl)-2′-methyl(1,1′-biphenyl)-2-carbonitrile hydrochloride] | 90 | 
Cn1cncc1C(OCc1ccccc1)c1ccc(C#N)c(-c2ccsc2)c1 (stereo not drawn) [Example 90, 4-((benzyloxy)(1-methyl-1H-imidazol-5-yl)methyl)-2-(3-thienyl)benzonitrile hydrochloride] | 90 | 
Cc1cc(C)cc(COC(c2ccc(C#N)c(-c3ccccc3C)c2)c2cncn2C)c1.Cl (stereo not drawn) [Example 158, 5-(((3,5-dimethylbenzyl)oxy)(1-methyl-1H-imidazol-5-yl)methyl)-2′-methyl(1,1′-biphenyl)-2-carbonitrile hydrochloride] |  | % Inhibition at 10^−6M ([2]; compound at 10^−6 M, bovine FTase, 37° C., 30 minutes, hydrochloride): 95%
Cn1cncc1C(NC1CCN(C(=O)c2ccccc2)CC1)c1ccc(C#N)c(-c2cccc3ccccc23)c1 (stereo not drawn) [Example 57, 4-(((1-benzoyl4-piperidinyl)amino)(1-methyl-1H-imidazol-5-yl)methyl)-2-(1-naphthyl)benzonitrile dihydrochloride] | 100 | 
COC(=O)c1cccc(CN(Cc2cncn2C)c2ccc(C#N)c(-c3cccc4ccccc34)c2)c1 [Example 271, methyl 3-((4-cyano((1-methyl-1H-imidazol-5-yl)methyl)-3-(1-naphthyl)anilino)methyl)benzoate] |  | % Inhibition at 10^−6M [2, 3]: 100%
Cn1cncc1C(OCc1ccc(Cl)cc1)c1ccc(C#N)c(-c2cccc3ccccc23)c1 (stereo not drawn) [Example 66, 4-(((4-chlorobenzyl)oxy)(1-methyl-1H-imidazol-5-yl)methyl)-2-(1-naphthyl)benzonitrile hydrochloride] | 100 | 
Cn1cncc1C(OCc1ccc(C#N)c(Cl)c1)c1ccc(C#N)c(-c2cccc3ccccc23)c1 (stereo not drawn) [Example 61, 4-(((3-chloro-4-cyanobenzyl)oxy)(1-methyl-1H-imidazol-5-yl)methyl)-2-(1-naphthyl)benzonitrile hydrochloride] | 100 | 
Cn1cncc1C(OCc1ccc(OC(F)(F)F)cc1)c1ccc(C#N)c(-c2cccc3ccccc23)c1 (stereo not drawn) [Example 67, 4-((1-methyl-1H-imidazol-5-yl)((4-(trifluoromethoxy)benzyl)oxy)methyl)-2-(1-naphthyl)benzonitrile hydrochloride] | 100 | 
COc1cc(COC(c2ccc(C#N)c(-c3ccccc3C)c2)c2cncn2C)cc(OC)c1OC.Cl (stereo not drawn) [Example 148] |  | % Inhibition at 10^−6M [2]: 95%
Cn1cncc1C(OCc1ccc(C#N)cc1)c1ccc(F)c(-c2cccc3ccccc23)c1 (stereo not drawn) [Example 112, 4-(((4-fluoro-3-(1-naphthyl)phenyl)(1-methyl-1H-imidazol-5-yl)methoxy)methyl)benzonitrile para-toluenesulfonic acid salt] | 100 | 
